Structures can show the parent of a compound that is named as a salt.
Tested on: sterol synthesis (cholesterol biosynthesis) in rat liver homogenate
Experiment: CSI screen: inhibition of sterol/cholesterol synthesis (14C-acetate incorporation into nonsaponifiable lipid) by rat liver homogenate
Format: biochemical
Settings: one-hour period, rats fed 5% cholestyramine for four days, 60 min, read-out: CSI/IC50 (concentration required for 50% inhibition of sterol synthesis)
Experimental: The ability of compounds of the present invention to inhibit the biosynthesis of cholesterol was measured by a method (designated CSI screen) which utilizes the procedure described by R. E. Dugan, et al, Archiv. Biochem. Biophys., (1972), 152, 21-27. In this method, the level of HMG-CoA enzyme activity in standard laboratory rats is increased by feeding the rats a chow diet containing 5% cholestyramine for four days, after which the rats are sacrificed.
The rat livers are homogenized, and the incorporation of […] into nonsaponifiable lipid by the rat liver homogenate is measured. The micromolar concentration of compound required for 50% inhibition of sterol synthesis over a one-hour period is measured, and expressed as an IC50 value.

| SMILES | IC50 [µM] |
| --- | --- |
| CC(C)c1cc(-c2ccc(F)cc2)c(/C=C/[C@@H](O)C[C@@H](O)CC(=O)O)c(C(C)C)n1 (relative stereo) [Example 16, [R*,S*(E)]-7-[4-(4-fluorophenyl)-2,6-bis(1-methylethyl)-3-pyridinyl]-3,5-dihydroxy-6-heptenoic acid, monosodium salt] | 0.03 |
| CCc1nc(CC)c(C(=O)OC)c(-c2ccc(F)cc2)c1/C=C/[C@@H](O)C[C@@H](O)CC(=O)O (relative stereo) [Example 35, [R*,S*-(E)]-5-(6-carboxy-3,5-dihydroxy-1-hexenyl)-2,6-diethyl-4-(4-fluorophenyl)-, methyl ester, 3-pyridinecarboxylic acid, monosodium salt] | 0.044 |
| CCc1cc(-c2ccc(F)cc2)c(/C=C/[C@@H](O)C[C@@H](O)CC(=O)O)c(CC)n1 (relative stereo) [Example 27, [R*,S*-(E)]-7-[2,6-diethyl-4-4-(fluorophenyl)-3-pyridinyl]-3,5-dihydroxy-6-heptenoic acid, monosodium salt] | 0.032 |
| Cc1nccc(-c2ccccc2)c1/C=C/[C@@H]1C[C@@H](O)CC(=O)O1 (relative stereo) [Example 1, [4α,6β(E)]-Tetrahydro-4-hydroxy-6-[2-(2-methyl-4-phenyl-3-pyridinyl)ethenyl]-2H-pyran-2-one] | 0.36 |
| Cc1cc(-c2ccc(F)cc2)c(/C=C/[C@@H](O)C[C@@H](O)CC(=O)O)c(C(C)C)n1 (relative stereo) [Example 20, [R*,S*-(E)]-7-[4-(4-fluorophenyl)-6-methyl-2-(1-methylethyl)-3-pyridinyl-3,5-dihydroxy-6-heptenoic acid, sodium salt] | 0.016 |
| Cc1cc(-c2ccc(F)cc2)c(/C=C/[C@@H](O)C[C@@H](O)CC(=O)O)c(C(F)(F)F)n1 (relative stereo) [Example 23, [R*,S*-(E)]-7-[4-(4-fluorophenyl)-6-methyl-2-(trifluoromethyl)-3,5-dihydroxy-6-heptenoic acid, monosodium salt] | 0.05 |
| CCCNC(=O)c1c(C(C)C)nc(C(C)C)c(/C=C/[C@@H](O)C[C@@H](O)CC(=O)O)c1-c1ccc(F)cc1 (relative stereo) [Example 33, [R*,S*-(E)]-7-[4-(4-fluorophenyl)-2,6-bis(1-methylethyl)-5-[(propylamino)carbonyl]-3-pyridinyl]-3,5-dihydroxy-6-heptenoic acid, monosodium salt] | 0.02 |
| CCc1nc(CC)c(CO)c(-c2ccc(F)cc2)c1/C=C/[C@@H](O)C[C@@H](O)CC(=O)O (relative stereo) [Example 37, [R*,S*-(E)]-7-[2,6-diethyl-4-(4-fluorophenyl)-5-(hydroxymethyl)-3-pyridinyl]-3,5-dihydroxy-6-heptenoic acid, monosodium salt] | 0.024 |
| O=C(O)C[C@H](O)C[C@H](O)/C=C/c1c(-c2ccc(F)cc2)cc(C(F)F)nc1C(F)(F)F (relative stereo) [Example 25, [R*,S*-(E)]-7-[6-(difluoromethyl)-4-(4-fluorophenyl)-2-(trifluoromethyl)-3-pyridinyl]-3,5-dihydroxy-6-heptenoic acid, monosodium salt] | 0.071 |
| Cc1cc(C)c(/C=C/[C@@H](O)C[C@@H](O)CC(=O)O)c(-c2ccc(F)cc2)n1 (relative stereo) [Example 29, [R*,S*-(E)]-7-[2-(4-fluorophenyl)-4,6-dimethyl-3-pyridinyl]-3,5-dihydroxy-6-heptenoic acid, monosodium salt] | 0.05 |
| C=Cc1c(C)nc(C(C)C)c(/C=C/[C@@H](O)C[C@@H](O)CC(=O)O)c1-c1ccc(F)cc1 (relative stereo) [Example 41, [R*,S*-(E)]-7-[5-ethenyl-4-(4-fluorophenyl)-6-methyl-2-(1-methylethyl)-3-pyridinyl]-3,5-dihydroxy-6-heptenoic acid, monosodium salt] | 0.011 |
| Cc1nccc(-c2ccccc2)c1CC[C@H]1C[C@H](O)CC(=O)O1 (relative stereo) [Example 4, trans-Tetrahydro-4-hydroxy-6-[2-(2-methyl-4-phenyl-3-pyridinyl)ethyl]-2H-pyran-2-one] | 0.42 |
| COC(=O)c1c(C(C)C)nc(C(C)C)c(/C=C/[C@@H](O)C[C@@H](O)CC(=O)O)c1-c1ccc(F)cc1 (relative stereo) [Example 14, [R*,S*-(E)]-5-(6-carboxy-3,5-dihydroxy-1-hexenyl)-4-(4-fluorophenyl)-2,6-bis-1-methylethyl)-, methyl ester-3-pyridinecarboxylic acid, sodium salt] | 0.079 |
| CC(C)c1nc(-c2ccccc2)cc(-c2ccc(F)cc2)c1/C=C/[C@@H](O)C[C@@H](O)CC(=O)O (relative stereo) [Example 31, [R*,S*-(E)]-7-[2-[4-(4-fluorophenyl)-2-(1-methylethyl)-6-phenyl-3-pyridinyl]ethenyl]-3,5-dihydroxy-6-heptenoic acid, monosodium salt] | 0.058 |
| CCOC(=O)c1c(C)nc(C)c(/C=C/[C@@H](O)C[C@@H](O)CC(=O)O)c1-c1ccc(F)cc1 (relative stereo) [Example 12, [R*,S*-(E)]-5-(6-carboxy-3,5-dihydroxy-1-hexenyl)-4-(4-fluorophenyl)-2,6-dimethyl-, 3-ethyl ester, 3-pyridinecarboxylic acid, monosodium salt] | 0.14 |
| COC(=O)c1c(C(C)C)nc(C)c(/C=C/[C@@H](O)C[C@@H](O)CC(=O)O)c1-c1ccc(F)cc1 (relative stereo) [Example 10, [R*,S*-(E)]-5-(6-carboxy-3,5-dihydroxy-1-hexenyl)-4-(4-fluorophenyl)-6-methyl-2-(1-methylethyl)-, 3-methyl ester, 3-pyridinecarboxylic acid, monosodium salt] | 0.07 |
| Cc1cc(-c2ccc(F)cc2)c(/C=C/[C@@H](O)C[C@@H](O)CC(=O)O)c(C)n1 (relative stereo) [Example 8, [R*,S*(E)]-7-[4-(4-Fluorophenyl)-2,6-dimethyl-3-pyridinyl]-3,5-dihydroxy-6-heptenoic acid, sodium salt] | 0.072 |
| Cc1cc(-c2ccccc2)c(/C=C/[C@@H]2C[C@@H](O)CC(=O)O2)c(C)n1 (relative stereo) [Example 2, [4α,6β(E)]-6-[2-(2,6-Dimethyl-4-phenyl-3-pyridinyl)ethenyl]tetrahydro-4-hydroxy-2H-pyran-2-one] | 0.18 |
| COc1c(C)nc(C(C)C)c(/C=C/[C@@H](O)C[C@@H](O)CC(=O)O)c1-c1ccc(F)cc1 (relative stereo) [Example 39, [R*,S*-(E)]-7-[4-(4-fluorophenyl)-5-methoxy-6-methyl-2-(1-methylethyl)-3-pyridinyl]-3,5-dihydroxy-6-heptenoic acid, monosodium salt] | 0.008 |
| Cc1cc(-c2ccc(F)cc2)c(/C=C/[C@@H]2C[C@@H](O)CC(=O)O2)c(C)n1 (relative stereo) [Example 7, [4α,6β(E)]-6-[2-[4-(4-Fluorophenyl)-2,6-dimethyl-3-pyridinyl]ethenyl]tetrahydro-4-hydroxy-2H-pyran-2-one] | 0.068 |
| Cc1cc(-c2ccccc2)c(/C=C/[C@@H](O)C[C@@H](O)CC(=O)O)c(C)n1 (relative stereo) [Example 3, [R*,S*(E)]-7-(2,6-dimethyl-4-phenyl-3-pyridinyl)-3,5-dihydroxy-6-heptenoicacid, sodium salt] | 0.23 |
